According to US9643967B2, “Pyrrolo[3,2-c]pyridine derivatives as TLR inhibitors” (TAKEDA PHARMACEUTICAL COMPANY LIMITED, priority 2013, dated 2017):
Read-outs that look alike come from different tables or passages of the source.

Target: T1, mTLR7 (Mus musculus, UniProt P58681)
T1 construct: Splenocytes isolated from male C57/BL6 mice; from tissue; host or cells: splenocytes from the spleen of male C57BL/6 mice
T1 sequence (P58681 27-1050): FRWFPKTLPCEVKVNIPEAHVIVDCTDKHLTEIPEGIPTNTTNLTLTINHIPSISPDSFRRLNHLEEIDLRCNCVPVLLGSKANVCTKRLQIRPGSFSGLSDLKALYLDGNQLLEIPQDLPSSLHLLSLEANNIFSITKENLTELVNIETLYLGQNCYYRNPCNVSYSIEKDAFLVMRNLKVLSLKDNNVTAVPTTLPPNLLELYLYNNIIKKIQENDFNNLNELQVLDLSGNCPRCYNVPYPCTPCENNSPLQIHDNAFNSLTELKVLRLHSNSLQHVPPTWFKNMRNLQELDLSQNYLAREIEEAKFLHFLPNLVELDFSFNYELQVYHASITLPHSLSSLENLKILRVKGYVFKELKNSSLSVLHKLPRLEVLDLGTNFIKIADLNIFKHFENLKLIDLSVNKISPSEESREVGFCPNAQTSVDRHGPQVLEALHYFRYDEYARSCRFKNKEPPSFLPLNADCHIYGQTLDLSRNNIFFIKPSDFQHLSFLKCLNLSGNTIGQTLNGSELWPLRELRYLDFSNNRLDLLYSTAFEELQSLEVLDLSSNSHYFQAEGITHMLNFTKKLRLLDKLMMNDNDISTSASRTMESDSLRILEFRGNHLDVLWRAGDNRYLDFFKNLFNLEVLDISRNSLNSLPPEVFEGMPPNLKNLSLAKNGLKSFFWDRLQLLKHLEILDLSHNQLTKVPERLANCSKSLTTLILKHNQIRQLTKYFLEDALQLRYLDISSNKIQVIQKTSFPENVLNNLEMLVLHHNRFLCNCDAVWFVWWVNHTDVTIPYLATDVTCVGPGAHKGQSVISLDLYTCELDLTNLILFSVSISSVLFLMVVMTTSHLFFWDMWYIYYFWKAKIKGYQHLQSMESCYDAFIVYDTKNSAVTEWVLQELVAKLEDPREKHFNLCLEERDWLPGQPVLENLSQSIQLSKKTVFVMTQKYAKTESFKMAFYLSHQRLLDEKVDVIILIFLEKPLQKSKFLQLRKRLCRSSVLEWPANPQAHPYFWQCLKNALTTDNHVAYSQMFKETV
Experiment: mTLR7 antagonism (IL-6 and TNF-α release assay) in mouse splenocytes, R0006/DOTAP stimulated
Type: cell-based
Details: 1 μM, mouse splenocytes
Text: mTLR9 and mTLR7 Antagonism (Cytokine Release Assay) in Mouse Splenocytes
TLR7 ligand R0006 (IDT, 5′-rU*rU*rG*rU*rU*rG*rU*rU*rG*rU*rU*rG*rU*rU*rG*rU*rU*rG*rU*rU-3′ (SEQ ID NO:1)), Liposomal transfection reagent—DOTAP (Roche, Cat. No. 11202375001), TLR9 ligand CpG ODN2006 (Sequence: T*C*G*T*C*G*T*T*T*T*G*T*C*G*T*T*T*T*G*T*C*G*T*T; *=phosphorothioate (SEQ ID NO:2)) DMSO (Sigma, D2650), RPMI Powder (Sigma, R6504), Fetal Bovine Serum (Gibco, 10270), Dulbecco's Phosphate Buffered Saline (Sigma, D1408), 96 well plate (Flat bottom, Costar 3599), ELISA kit for IL-6 (EBioscience, 88-7064-77 and TNFa (EBioscience, 88-7346-88), MACS Buffer (AutoMACS Rinsing Solution (Miltenyl Biotec, 130-091-222)+0.05% BSA), RBC lysis buffer (0.85% NH4Cl), 40 μm cell strainer (BD Falcon, 352340) Method: A. Isolation of Mouse Splenocytes
Mouse spleen was isolated from C57BL6 mouse and stored in 1× chilled PBS buffer until further processed. Spleen was transferred to a sterile petriplate and chopped in to 5-6 pieces in presence of MACS buffer (100 μl) with the help of fresh surgical blade and crushed with flat plunger of a sterile syringe. A uniform suspension was prepared by passing cells through a 40 μm cell strainer. Cells were centrifuged at 450×g for 5 minutes at 4° C., supernatant was discarded and pellet dislodged gently, resuspended in 2 ml of pre-warmed (37° C.) RBC lysis buffer at room temperature with continuous gentle mixing with 1 ml pipette. Lysis buffer was neutralized with 12 ml of chilled MACS buffer and cells were passed through 40 μm cell strainer. Cell suspension was collected in 15 ml MACS buffer and centrifuged at 450×g for 5 minutes at 4° C. Pellet was resuspended in 15 ml MACS buffer and centrifuged at 400×g for 5 minutes. Cells were resuspended in 10 ml of RPMI complete medium and viability was estimated by Trypan blue method.
mTLR7 Antagonism (IL-6 and TNF-α Release Assay):
1 mg/ml stock of R0006 was prepared in sterile, endotoxin-free water. R0006 stock was diluted 10 fold with DOTAP and incubated for 30 minutes to form liposome complex (100 μg/ml of R0006). This complex was further diluted 10 fold with incomplete RPMI media (10 μg/ml of R0006) to achieve the final agonist concentration of 1 μg/ml. DOTAP alone was diluted 10 fold in incomplete RPMI media. NCEs were added in a concentration range of 30 μM to 1 nM in respective wells of assay plate, assay medium containing 0.3% DMSO were added to control wells. 0.2 million splenocytes were added to all the wells and incubated at 37° C. in 5% CO2 incubator for 30 minutes. 1 μg/ml of respective agonist was added to all the wells except those were assigned as negative controls and mixed thoroughly. DOTAP was added to negative control wells and incubated overnight at 37° C./5% CO2. The plate was centrifuged at 450×g for 5 minutes at room temperature and the supernatant was collected. ELISA was performed as per manufacturer's protocol. S/B Ratio, % Activity and % Inhibition was calculated using MS Excel. IC50 and inhibition curve was generated using Graph Pad Prism.

[1] = IL-6 release, read-out: mTLR7 inhibitory activity (% at 1 μM), IL-6
[2] = TNF-α release, read-out: mTLR7 inhibitory activity (% at 1 μM), TNF-α

SMILES | inhibition at 1 µM [1] | inhibition at 1 µM [2]
Cc1nc(-c2ccc(N3CCN(C(C)C)CC3)cc2)c2cc(CN3CCOCC3)[nH]c2c1C [Example A36, 4-[[4-[4-(4-isopropylpiperazin-1-yl)phenyl]-6,7-dimethyl-1H-pyrrolo[3,2-c]pyridin-2-yl]methyl] morpholine] | 100% | 99%
Cc1nc(-c2ccc(N3CCN(C)CC3)cc2)c2cc(CN3CCOCC3)[nH]c2c1C [Example A37, 4-[[6,7-dimethyl-4-[4-(4-methylpiperazin-1-yl)phenyl]-1H-pyrrolo[3,2-c]pyridin-2-yl]methyl] morpholine] | – | 100%
CCN1CCN(c2ccc(-c3nc(C)c(C)c4[nH]c(CN5CCOCC5)cc34)cc2)CC1 [Example A38, 4-[[4-[4-(4-ethylpiperazin-1-yl)phenyl]-6,7-dimethyl-1H-pyrrolo[3,2-c]pyridin-2-yl]methyl] morpholine] | 100% | 100%
Cc1nc(-c2ccc(N3CCN(C(C)C)CC3)cc2)c2cc(CN3CCCCC3)[nH]c2c1C [Example A39, 4-[4-(4-isopropylpiperazin-1-yl)phenyl]-6,7-dimethyl-2-(1-piperidylmethyl)-1H-pyrrolo[3,2-c]pyridine] | – | 100%
Cc1nc(-c2ccc(N3CCN(C(C)C)CC3)cc2)c2cc(CN3CCCC3)[nH]c2c1C [Example A40, 4-[4-(4-isopropylpiperazin-1-yl)phenyl]-6,7-dimethyl 2-(pyrrolidin-1-ylmethyl)-1H-pyrrolo[3,2-c)pyridine] | – | 100%
c1cc2[nH]c(CN3CCOCC3)cc2c(-c2ccc(N3CCNCC3)cc2)n1 [Example A42, 4-[[4-(4-(piperazin-1-yl)phenyl)-1H-pyrrolo[3,2-c]pyridin-2-yl]methyl] morpholine] | 34% | 9%
c1cc2[nH]c(CN3CCOCC3)cc2c(-c2ccc(OC3CCNCC3)cc2)n1 [Example A49, 4-[[4-[4-(4-piperidyloxy)phenyl]-1H-pyrrolo[3,2-c]pyridin-2-yl]methyl]morpholine] | 2% | 3%
Cc1cc2[nH]c(CN3CCOCC3)cc2c(-c2ccc(C3CCN(C(C)C)CC3)cc2)n1 [Example A51, 4-[[4-[4-(1-isopropyl-4-piperidyl)phenyl]-6-methyl-1H-pyrrolo[3,2-c]pyridin-2-yl]methyl]morpholine] | 100% | 96%
CC(C)N1CC=C(c2ccc(-c3nccc4[nH]c(CN5CCOCC5)cc34)cn2)CC1 [Example A52, 4-[[4-[6-(1-isopropyl-3,6-dihydro-2H-pyridin-4-yl)-3-pyridyl]-1H-pyrrolo[3,2-c]pyridin-2-yl]methyl]morpholine] | 71% | 10%
CC(C)N1CCN(c2ccc(-c3nccc4[nH]c(CN5CCOCC5)cc34)cn2)CC1 [Example A53, 4-[[4-[6-(4-isopropylpiperazin-1-yl)-3-pyridyl]-1H-pyrrolo[3,2-c]pyridin-2-yl]methyl]morpholine] | 100% | 83%
CC(C)N1CCC(n2cc(-c3nccc4[nH]c(CN5CCOCC5)cc34)cn2)CC1 [Example A54, 4-[[4-[1-(1-isopropyl-4-piperidyl)pyrazol-4-yl]-1H-pyrrolo[3,2-c]pyridin-2-yl]methyl]morpholine] | – | 0%
CC(C)N1CCN(Cc2ccc(-c3nccc4[nH]c(CN5CCOCC5)cc34)cc2)CC1 [Example A55, 4-[[4-[4-[(4-isopropylpiperazin-1-yl)methyl]phenyl]-1H-pyrrolo[3,2-c]pyridin-2-yl]methyl]morpholine] | 100% | 33%
CC(C)N1CCC(Oc2ccc(-c3nccc4[nH]c(CN5CCOCC5)cc34)cc2)CC1 [Example A56, 4-[[4-[4-[(1-isopropyl-4-piperidyl)oxy]phenyl]-1H-pyrrolo[3,2-c]pyridin-2-yl]methyl]morpholine] | – | 64%
CC(C)N1CCN(c2cccc(-c3nccc4[nH]c(CN5CCOCC5)cc34)c2)CC1 [Example A57, 4-[[4-[3-(4-isopropylpiperazin-1-yl)phenyl]-1H-pyrrolo[3,2-c]pyridin-2-yl]methyl]morpholine] | 80% | 79%
CN1CCN(Cc2ccc(-c3nccc4[nH]c(CN5CCOCC5)cc34)cc2)CC1 [Example A60, 4-[[4-[4-[(4-methylpiperazin-1-yl)methyl]phenyl]-1H-pyrrolo[3,2-c]pyridin-2-yl]methyl]morpholine] | – | 29%
CN1CCN(c2cccc(-c3nccc4[nH]c(CN5CCOCC5)cc34)c2)CC1 [Example A61, 4-[[4-[3-(4-methylpiperazin-1-yl)phenyl]-1H-pyrrolo[3,2-c]pyridin-2-yl]methyl]morpholine] | 78% | 74%
CN1CCC(Oc2ccc(-c3nccc4[nH]c(CN5CCOCC5)cc34)cc2)CC1 [Example A62, 4-[[4-[4-[(1-methyl-4-piperidyl)oxy]phenyl]-1H-pyrrolo[3,2-c]pyridin-2-yl]methyl]morpholine] | – | 75%
CN1CCC(n2cc(-c3nccc4[nH]c(CN5CCOCC5)cc34)cn2)CC1 [Example A63, 4-[[4-[1-(1-methyl-4-piperidyl)pyrazol-4-yl]-1H-pyrrolo[3,2-c]pyridin-2-yl]methyl]morpholine] | – | 0%
CC(C)N1CCC(c2ccc(-c3nccc4[nH]c(CN5CCOCC5)cc34)cn2)CC1 [Example A64, 4-[[4-[6-(1-isopropyl-4-piperidyl)-3-pyridyl]-1H-pyrrolo[3,2-c]pyridin-2-yl]methyl]morpholine] | 13% | 4%
CC(C)N1CCC(c2ccc(-c3nccc4[nH]c(CN5CCOCC5)cc34)cc2)CC1 [Example A70, 4-[[4-[4-(1-isopropyl-4-piperidyl)phenyl]-1H-pyrrolo[3,2-c]pyridin-2-yl]methyl]morpholine] | 100% | 36%
CC(C)N1CCN(c2ccc(-c3nccc4[nH]c(CN5CC(O)C5)cc34)cc2)CC1 [Example A72, 1-[[4-[4-(4-isopropylpiperazin-1-yl)phenyl]-1H-pyrrolo[3,2-c]pyridin-2-yl]methyl]azetidin-3-ol] | 0% | 14%
